Measured values taken from patent US8969568B2, “Substituted naphthyridines and their use as medicaments” (Boehringer Ingelheim Pharma GmbH & Co. KG, priority 2010, dated 2015).
pIC50: −log10 of the molar value.

Biological target: Recombinant human Syk (amino acids 342-635), GST-Syk kinase fusion protein (Homo sapiens (Human), UniProt P43405)
Test: Syk Kinase Test (Kinase Glo luminescence)
Details: read-out: IC50-value, GST-Syk 4 nM final, ATP remaining, 60 minutes at room temperature
Procedure: The catalytic activity of the GST-Syk kinase fusion protein was determined using the Kinase Glo® Luminescence Kinase test (Promega; V6712). In this homogeneous test the amount of ATP remaining after the kinase reaction is quantified by a luciferin-luciferase reaction using luminescence. The luminescence signal obtained correlates with the amount of ATP still present and thus correlates inversely with the activity of the protein kinase.
GST-Syk was diluted to 6.0 nM in the test buffer and 10 μl of this dilution were used in the kinase test (final concentration of Syk=4 nM in a total volume of 15 μl).
Positive controls are the reaction mixtures that contain no test substance; negative controls (blanks) are reaction mixtures that contain no kinase.
After 60 minutes, 10 μl Kinase-Glo® solution (Promega, Cat. #V6712) (heated to room temperature) were added to each well and incubation was continued for a further 15 minutes. The plates were read in a Microplate Scintillation and Luminescence Counter (Canberra Packard GmbH).
Data Evaluation and Calculation:
The output file of the “Counter” is a text file that contains the well number and measured counts in two columns. […] Based on this values the % inherent value for the measurement of each substance concentration was calculated using an “MS-Excel—VB macro”. […] The IC50 values were calculated from the % inhibition values using “GraphPadPrism” software (Version 5) (GraphPad Software Inc.).

| pIC50 | SMILES |
| --- | --- |
| 9.70 | COc1cc(-c2cc3ncccc3c(O[C@H](C)[C@H]3CNC(=O)C3)n2)cc(OC)c1OC [Example 35, (R)-4-[(R)-1-[7-(3,4,5-Trimethoxy-phenyl)-[1,6]naphthyridin-5-yloxy]-ethyl]-pyrrolidin-2-one] |
| 7.79 | COc1cc(-c2cc3ncccc3c(OC[C@H]3CNC(=O)C3)n2)cc(OC)c1OC1CCOCC1 [Example 44] |
| > 10.00 | COc1cc(-c2cc3ncccc3c(O[C@H](C)[C@H]3CNC(=O)C3)n2)ccc1OC1CCOCC1 [Example 63] |
